One assay deals with Histone deacetylase. Type of assay: protein assay, Homo sapiens.
The target in another assay is Histone deacetylase 1 (Homo sapiens, UniProt Q13547). The experiment in a line: Inhibition of HDAC1 (unknown origin).
A further assay deals with Histone deacetylase 3 (Homo sapiens, UniProt O15379). The experiment in a line: Inhibition of HDAC3 (unknown origin).
The next assay has as its target Histone deacetylase 4 (Homo sapiens, UniProt P56524). The experiment in a line: Inhibition of HDAC4 (unknown origin).
A further assay has as its target Histone deacetylase 5 (Homo sapiens, UniProt Q9UQL6). The experiment in a line: Inhibition of HDAC5 (unknown origin).
Another assay has as its target T1, Histone deacetylase 7 (Homo sapiens, UniProt Q8WUI4).
T1 sequence (Q8WUI4 whole entry): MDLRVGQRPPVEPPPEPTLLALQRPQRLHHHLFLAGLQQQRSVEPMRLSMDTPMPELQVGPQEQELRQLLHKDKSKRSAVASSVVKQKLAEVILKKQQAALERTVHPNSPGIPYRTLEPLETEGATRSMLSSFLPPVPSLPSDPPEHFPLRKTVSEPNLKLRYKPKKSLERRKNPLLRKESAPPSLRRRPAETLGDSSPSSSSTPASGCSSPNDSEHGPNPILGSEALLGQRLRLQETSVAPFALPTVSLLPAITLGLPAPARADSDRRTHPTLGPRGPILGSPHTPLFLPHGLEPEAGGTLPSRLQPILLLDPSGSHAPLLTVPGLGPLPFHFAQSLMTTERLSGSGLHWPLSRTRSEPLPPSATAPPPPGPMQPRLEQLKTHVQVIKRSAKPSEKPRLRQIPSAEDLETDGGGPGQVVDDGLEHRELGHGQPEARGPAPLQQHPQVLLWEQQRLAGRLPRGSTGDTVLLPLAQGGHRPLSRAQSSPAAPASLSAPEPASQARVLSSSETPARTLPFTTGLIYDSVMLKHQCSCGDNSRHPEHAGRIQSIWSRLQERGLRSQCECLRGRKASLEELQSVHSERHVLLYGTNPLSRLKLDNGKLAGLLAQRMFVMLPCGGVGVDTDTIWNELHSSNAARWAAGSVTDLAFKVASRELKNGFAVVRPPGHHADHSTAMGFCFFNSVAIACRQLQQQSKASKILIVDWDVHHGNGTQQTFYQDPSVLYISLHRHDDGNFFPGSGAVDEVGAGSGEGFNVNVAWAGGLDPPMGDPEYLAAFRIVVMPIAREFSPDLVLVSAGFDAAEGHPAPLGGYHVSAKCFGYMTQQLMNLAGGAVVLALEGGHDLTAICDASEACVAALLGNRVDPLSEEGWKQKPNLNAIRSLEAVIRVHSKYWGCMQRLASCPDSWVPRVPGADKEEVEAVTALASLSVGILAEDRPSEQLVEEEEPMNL
The experiment in a line: Inhibition of HDAC7 (unknown origin).

For the next assay, the target named is T2, Histone deacetylase 8 (Homo sapiens, UniProt Q9BY41).
T2 sequence (Q9BY41 whole entry): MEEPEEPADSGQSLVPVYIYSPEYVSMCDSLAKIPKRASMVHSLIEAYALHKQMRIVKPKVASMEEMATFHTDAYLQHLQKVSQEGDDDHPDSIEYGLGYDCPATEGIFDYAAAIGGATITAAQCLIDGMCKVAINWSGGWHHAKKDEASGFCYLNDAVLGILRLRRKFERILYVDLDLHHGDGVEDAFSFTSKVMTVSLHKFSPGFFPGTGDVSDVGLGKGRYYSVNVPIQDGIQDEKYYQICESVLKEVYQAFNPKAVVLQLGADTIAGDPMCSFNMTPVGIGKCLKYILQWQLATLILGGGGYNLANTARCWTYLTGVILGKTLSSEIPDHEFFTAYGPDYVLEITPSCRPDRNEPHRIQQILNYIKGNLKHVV
As to the kind of experiment: Inhibition of HDAC8 (unknown origin).

A further assay concerns the target Histone deacetylase 9 (Homo sapiens, UniProt Q9UKV0). The experiment in a line: Inhibition of HDAC9 (unknown origin).
Assay [1] addresses T3, Polyamine deacetylase HDAC10 (Homo sapiens, UniProt Q969S8).
T3 sequence (Q969S8 whole entry): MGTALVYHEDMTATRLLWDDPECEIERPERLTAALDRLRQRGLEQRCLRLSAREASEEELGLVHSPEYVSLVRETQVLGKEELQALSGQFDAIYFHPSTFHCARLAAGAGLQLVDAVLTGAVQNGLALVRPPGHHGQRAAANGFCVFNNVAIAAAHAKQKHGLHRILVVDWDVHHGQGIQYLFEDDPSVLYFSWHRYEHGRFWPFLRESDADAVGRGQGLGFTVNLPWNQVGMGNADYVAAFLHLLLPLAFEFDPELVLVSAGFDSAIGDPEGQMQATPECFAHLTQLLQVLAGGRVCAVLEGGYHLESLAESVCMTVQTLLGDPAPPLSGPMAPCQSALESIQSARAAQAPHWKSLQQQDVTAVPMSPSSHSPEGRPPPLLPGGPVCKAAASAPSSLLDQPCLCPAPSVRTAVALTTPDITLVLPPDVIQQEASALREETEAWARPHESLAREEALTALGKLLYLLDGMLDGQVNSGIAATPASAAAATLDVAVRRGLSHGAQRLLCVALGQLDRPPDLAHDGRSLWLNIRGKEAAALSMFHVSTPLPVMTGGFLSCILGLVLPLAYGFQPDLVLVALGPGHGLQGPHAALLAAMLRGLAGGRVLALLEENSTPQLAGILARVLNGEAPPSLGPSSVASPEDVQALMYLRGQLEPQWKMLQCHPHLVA
As to the kind of experiment: Inhibition of HDAC10 (unknown origin).

The next assay addresses T4, Histone deacetylase 11 (Homo sapiens, UniProt Q96DB2).
T4 sequence (Q96DB2 whole entry): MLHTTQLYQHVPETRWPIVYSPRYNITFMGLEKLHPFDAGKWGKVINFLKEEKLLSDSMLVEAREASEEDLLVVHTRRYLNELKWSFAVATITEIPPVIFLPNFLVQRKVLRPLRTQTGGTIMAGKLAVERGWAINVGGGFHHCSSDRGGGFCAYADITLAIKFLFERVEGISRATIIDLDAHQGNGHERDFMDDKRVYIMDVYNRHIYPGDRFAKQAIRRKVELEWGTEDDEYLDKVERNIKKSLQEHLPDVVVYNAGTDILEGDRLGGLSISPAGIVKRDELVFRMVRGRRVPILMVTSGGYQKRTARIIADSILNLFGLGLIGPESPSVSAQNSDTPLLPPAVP
As to the kind of experiment: Inhibition of HDAC11 (unknown origin).

Another assay has as its target Histone deacetylase 2 (Homo sapiens, UniProt Q92769).
The target of assay [2] is T5, Protein deacetylase HDAC6 (Homo sapiens, UniProt Q9UBN7).
T5 sequence (Q9UBN7 whole entry): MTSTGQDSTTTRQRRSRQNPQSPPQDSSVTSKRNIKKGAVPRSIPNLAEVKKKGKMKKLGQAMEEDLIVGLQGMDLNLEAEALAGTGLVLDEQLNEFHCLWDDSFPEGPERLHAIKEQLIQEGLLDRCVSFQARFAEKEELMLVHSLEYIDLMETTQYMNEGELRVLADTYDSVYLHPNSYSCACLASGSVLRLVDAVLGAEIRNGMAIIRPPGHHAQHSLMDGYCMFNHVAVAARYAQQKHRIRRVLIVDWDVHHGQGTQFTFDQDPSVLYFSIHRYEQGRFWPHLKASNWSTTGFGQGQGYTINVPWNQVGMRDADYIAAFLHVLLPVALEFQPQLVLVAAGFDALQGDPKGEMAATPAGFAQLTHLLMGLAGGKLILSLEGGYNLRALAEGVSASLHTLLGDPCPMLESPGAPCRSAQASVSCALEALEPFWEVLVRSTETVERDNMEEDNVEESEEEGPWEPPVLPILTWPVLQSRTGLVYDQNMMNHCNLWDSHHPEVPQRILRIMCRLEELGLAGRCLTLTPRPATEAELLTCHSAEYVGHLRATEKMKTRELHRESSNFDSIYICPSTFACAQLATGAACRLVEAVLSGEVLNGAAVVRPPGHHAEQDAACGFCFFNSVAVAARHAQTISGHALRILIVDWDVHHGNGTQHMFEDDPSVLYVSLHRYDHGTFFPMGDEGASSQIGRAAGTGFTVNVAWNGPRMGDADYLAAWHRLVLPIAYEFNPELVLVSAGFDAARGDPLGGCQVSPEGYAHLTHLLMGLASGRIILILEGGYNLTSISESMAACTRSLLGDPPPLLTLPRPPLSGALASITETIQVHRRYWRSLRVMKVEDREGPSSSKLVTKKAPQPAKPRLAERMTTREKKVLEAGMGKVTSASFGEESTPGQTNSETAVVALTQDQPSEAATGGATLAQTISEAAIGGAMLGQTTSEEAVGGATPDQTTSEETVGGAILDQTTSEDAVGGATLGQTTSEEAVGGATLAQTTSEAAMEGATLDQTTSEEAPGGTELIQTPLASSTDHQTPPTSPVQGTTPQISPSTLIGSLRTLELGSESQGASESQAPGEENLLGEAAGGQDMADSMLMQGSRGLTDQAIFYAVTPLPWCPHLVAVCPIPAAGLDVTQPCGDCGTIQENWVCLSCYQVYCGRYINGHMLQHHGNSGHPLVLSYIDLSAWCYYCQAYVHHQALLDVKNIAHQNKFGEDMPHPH
As to the kind of experiment: Inhibition of HDAC6 (unknown origin).

Sequence of Histone deacetylase 5 (Q9UQL6 whole entry): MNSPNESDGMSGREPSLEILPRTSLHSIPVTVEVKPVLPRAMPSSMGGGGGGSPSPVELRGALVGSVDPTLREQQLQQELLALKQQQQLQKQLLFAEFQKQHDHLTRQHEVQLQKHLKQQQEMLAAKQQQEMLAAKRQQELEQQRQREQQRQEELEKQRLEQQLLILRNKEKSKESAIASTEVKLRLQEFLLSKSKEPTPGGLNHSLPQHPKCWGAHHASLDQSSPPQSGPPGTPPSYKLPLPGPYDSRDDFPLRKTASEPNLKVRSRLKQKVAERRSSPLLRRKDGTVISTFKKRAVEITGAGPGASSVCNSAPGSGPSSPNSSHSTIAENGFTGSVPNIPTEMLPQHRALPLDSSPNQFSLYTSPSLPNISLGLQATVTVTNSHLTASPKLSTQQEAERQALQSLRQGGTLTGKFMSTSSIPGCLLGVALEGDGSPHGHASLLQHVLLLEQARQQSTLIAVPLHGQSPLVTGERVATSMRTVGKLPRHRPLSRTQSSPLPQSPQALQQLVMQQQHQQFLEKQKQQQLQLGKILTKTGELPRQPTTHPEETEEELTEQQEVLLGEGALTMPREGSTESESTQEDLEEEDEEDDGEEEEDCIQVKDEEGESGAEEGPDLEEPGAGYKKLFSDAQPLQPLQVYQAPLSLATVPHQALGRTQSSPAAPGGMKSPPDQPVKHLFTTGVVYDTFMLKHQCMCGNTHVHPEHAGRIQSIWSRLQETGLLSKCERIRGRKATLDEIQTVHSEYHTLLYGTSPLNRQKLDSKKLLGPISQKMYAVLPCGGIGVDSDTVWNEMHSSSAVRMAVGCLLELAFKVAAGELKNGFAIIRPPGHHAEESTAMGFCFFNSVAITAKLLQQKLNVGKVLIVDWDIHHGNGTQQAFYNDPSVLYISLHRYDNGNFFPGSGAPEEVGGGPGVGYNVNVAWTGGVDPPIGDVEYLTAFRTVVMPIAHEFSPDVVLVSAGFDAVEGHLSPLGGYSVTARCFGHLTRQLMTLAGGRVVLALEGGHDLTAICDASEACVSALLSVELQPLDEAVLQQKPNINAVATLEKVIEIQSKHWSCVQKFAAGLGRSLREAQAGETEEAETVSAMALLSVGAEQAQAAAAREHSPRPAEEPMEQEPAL
Sequence of Histone deacetylase 4 (P56524 whole entry): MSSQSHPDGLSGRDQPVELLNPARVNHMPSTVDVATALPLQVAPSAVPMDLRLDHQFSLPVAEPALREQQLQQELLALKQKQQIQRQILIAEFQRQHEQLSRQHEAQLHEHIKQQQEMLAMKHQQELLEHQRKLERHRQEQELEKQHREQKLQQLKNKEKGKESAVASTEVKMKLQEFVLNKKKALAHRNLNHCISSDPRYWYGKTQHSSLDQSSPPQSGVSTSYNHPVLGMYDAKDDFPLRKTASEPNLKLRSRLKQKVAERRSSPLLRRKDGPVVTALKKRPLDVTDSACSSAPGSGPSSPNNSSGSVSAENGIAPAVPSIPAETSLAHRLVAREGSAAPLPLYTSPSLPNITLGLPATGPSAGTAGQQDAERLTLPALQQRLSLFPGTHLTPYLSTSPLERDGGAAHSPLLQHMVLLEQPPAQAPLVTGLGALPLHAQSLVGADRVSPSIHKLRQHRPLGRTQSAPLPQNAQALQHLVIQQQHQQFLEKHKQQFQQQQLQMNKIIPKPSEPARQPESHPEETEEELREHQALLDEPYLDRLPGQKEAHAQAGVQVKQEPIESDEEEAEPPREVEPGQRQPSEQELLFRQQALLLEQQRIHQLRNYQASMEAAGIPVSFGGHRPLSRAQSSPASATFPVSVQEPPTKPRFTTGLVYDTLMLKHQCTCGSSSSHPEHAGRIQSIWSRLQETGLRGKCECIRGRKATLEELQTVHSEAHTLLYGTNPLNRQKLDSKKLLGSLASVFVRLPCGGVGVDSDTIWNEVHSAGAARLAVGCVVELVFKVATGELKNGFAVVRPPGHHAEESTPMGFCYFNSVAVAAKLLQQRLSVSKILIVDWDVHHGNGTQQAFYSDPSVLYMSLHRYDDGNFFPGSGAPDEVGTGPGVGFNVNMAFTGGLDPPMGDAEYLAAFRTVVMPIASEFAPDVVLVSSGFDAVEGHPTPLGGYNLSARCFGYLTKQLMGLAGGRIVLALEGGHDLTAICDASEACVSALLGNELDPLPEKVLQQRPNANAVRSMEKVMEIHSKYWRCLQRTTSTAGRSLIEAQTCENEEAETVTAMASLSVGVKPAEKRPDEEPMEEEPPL
Sequence of Histone deacetylase 1 (Q13547 whole entry): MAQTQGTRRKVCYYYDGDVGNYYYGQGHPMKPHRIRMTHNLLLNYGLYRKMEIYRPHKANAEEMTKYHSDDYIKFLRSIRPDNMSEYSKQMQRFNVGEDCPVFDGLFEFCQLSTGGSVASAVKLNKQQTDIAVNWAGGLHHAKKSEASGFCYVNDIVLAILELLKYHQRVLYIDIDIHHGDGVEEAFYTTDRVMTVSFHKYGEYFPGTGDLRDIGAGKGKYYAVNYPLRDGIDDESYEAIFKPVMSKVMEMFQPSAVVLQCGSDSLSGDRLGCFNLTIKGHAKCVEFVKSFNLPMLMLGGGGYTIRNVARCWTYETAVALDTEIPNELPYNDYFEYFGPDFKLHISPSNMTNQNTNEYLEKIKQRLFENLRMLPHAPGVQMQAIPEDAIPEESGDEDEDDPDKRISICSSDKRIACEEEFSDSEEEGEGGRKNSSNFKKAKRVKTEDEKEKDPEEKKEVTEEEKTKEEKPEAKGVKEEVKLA
Sequence of Histone deacetylase 3 (O15379 whole entry): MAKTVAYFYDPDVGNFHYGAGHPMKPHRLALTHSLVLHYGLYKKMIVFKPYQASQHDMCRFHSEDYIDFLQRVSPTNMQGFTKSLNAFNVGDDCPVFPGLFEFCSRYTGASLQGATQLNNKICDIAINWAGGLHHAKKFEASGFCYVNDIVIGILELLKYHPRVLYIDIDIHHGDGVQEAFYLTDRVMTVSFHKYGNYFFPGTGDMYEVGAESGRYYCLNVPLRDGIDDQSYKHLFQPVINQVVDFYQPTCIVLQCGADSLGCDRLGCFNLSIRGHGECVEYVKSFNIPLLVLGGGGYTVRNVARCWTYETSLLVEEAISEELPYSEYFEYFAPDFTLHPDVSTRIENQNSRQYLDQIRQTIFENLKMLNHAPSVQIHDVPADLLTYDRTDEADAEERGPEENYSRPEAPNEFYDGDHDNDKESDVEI
Sequence of Histone deacetylase 2 (Q92769 whole entry): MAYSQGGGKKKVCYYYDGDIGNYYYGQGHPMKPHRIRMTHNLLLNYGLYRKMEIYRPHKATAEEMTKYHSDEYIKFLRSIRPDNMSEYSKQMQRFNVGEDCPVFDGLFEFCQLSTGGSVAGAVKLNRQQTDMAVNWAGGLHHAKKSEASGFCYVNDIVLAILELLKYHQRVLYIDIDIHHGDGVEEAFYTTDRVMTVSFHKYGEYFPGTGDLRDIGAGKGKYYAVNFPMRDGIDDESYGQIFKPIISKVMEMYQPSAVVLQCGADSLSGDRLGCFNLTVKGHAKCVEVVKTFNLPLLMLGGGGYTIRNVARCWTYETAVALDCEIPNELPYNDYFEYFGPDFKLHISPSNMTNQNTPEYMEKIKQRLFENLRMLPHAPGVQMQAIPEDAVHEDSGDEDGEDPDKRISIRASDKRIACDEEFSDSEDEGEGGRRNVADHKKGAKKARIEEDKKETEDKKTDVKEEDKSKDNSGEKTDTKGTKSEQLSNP
Sequence of Histone deacetylase 9 (Q9UKV0 whole entry): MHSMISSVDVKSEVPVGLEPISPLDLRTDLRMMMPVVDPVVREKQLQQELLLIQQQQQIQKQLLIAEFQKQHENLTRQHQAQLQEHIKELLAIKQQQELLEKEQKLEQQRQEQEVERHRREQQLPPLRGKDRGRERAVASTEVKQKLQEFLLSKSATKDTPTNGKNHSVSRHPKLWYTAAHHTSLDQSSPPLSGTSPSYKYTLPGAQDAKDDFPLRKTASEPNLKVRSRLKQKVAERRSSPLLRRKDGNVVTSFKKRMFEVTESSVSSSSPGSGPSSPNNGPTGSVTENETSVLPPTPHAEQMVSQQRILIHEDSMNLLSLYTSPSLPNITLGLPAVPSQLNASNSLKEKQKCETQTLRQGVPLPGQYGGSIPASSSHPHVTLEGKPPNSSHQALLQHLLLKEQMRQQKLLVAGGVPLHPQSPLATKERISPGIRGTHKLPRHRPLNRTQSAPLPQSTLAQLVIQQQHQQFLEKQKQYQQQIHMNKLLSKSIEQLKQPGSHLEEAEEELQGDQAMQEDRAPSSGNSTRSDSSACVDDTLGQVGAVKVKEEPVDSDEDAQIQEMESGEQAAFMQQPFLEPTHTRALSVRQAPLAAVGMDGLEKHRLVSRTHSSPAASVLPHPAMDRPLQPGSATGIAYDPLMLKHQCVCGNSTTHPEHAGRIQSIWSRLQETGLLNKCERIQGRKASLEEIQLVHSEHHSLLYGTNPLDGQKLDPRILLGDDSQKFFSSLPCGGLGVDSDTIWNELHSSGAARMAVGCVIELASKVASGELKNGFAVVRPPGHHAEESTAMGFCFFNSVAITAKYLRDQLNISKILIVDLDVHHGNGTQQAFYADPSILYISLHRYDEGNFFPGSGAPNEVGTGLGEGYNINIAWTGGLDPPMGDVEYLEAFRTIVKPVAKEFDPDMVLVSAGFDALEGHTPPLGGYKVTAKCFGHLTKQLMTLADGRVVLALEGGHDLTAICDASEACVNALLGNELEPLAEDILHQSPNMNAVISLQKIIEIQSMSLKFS

As to `CCc1nnc(NS(=O)(=O)c2ccc(N/C=C3\Sc4ccccc4C3=O)cc2)s1`, at Histone deacetylase, the IC50 turned out to be 4200 nM.
Consider `O=C(NO)c1ccc(CC(=O)N(CCO)c2ccccc2)cc1`, for which the IC50 at Histone deacetylase 1 is 2900 nM; on Histone deacetylase 3, 1700 nM; at Histone deacetylase 4, over 10000 nM; against Histone deacetylase 5, over 10000 nM; against Histone deacetylase 7, over 10000 nM; against Histone deacetylase 8 it was 2800 nM. The results for the IC50 (against Histone deacetylase 9; in assay [1]; against Histone deacetylase 11) were over 10000 nM, 3000 nM and over 10000 nM, respectively.
Regarding `CC1(C)C(=O)N(c2ccc(C#N)c(C(F)(F)F)c2)C(=O)N1Cc1ccc(-c2cn(CCCCCCC(=O)NO)nn2)cc1`, the IC50 at Histone deacetylase came out at 690 nM.
Consider `O=C(CCCCCCNC(=O)c1c(-c2ccc(O)cc2)sc2cc(O)ccc12)NO`, for which the IC50 was determined as 168 nM on Histone deacetylase 1, 665 nM on Histone deacetylase 2, 128 nM on Histone deacetylase 3 and 400 nM at Histone deacetylase 8.
For `O=C(CCCCCn1cc(-c2ccc(C(=O)c3c(-c4ccc(O)cc4)sc4cc(O)ccc34)cc2)nn1)NO`, in that order: 1030 nM, 1820 nM, 748 nM and 29900 nM.
Consider `O=C(CCc1ccc(Oc2cccs2)c(O)c1)Nc1ccc(C(=O)NO)cc1`, for which the IC50 against Histone deacetylase 1 turned out to be 24 nM; at Histone deacetylase 8, 152 nM.
As to `OC1(c2ccccc2)C=C(c2ccccc2)CO1` (stereo not drawn), the IC50 at Histone deacetylase 1 came to 2740 nM; against Histone deacetylase 2, 170 nM.
Regarding `CC(C)Cc1c(OCCOc2cccc(/C=C/C(=O)NO)c2)ccc2c1OC(=O)CC2`, the results for the IC50 (against Histone deacetylase 1; in [2]) were 66.7 nM and 6 nM, respectively.
Turning to `O=C(/C=C/c1cccc(Nc2ncnc3cc4c(cc23)OCCO4)c1)NO`, the figures for the IC50 (on Histone deacetylase 1; on Histone deacetylase 3; in assay [2]) were 290 nM, 500 nM and 560 nM, respectively.
Turning to `CCc1nnc(NS(=O)(=O)c2ccc(Nc3nc(C)c(C(=O)Nc4ccccc4)s3)cc2)s1`, the IC50 against Histone deacetylase is 32000 nM.
For the molecule `CN(CCc1ccccc1)S(=O)(=O)c1cccc(/C=C/C(=O)NO)c1`, the IC50 against Histone deacetylase 1 was 5 nM; against Histone deacetylase 2, 0.2 nM; on Histone deacetylase 3, 3.4 nM; at Histone deacetylase 4, 500 nM; against Histone deacetylase 5, 10700 nM; in assay [2], 5 nM. The IC50 on Histone deacetylase 8 was 150 nM; against Histone deacetylase 9, 16900 nM.
Consider `CC[N+]1=C(/C=C/C=C/C=C2/N(CCCCC(=O)N(CCc3c(C)[nH]c4ccccc34)Cc3ccc(/C=C/C(=O)NO)cc3)c3ccc4c(S(=O)(=O)O)cc(S(=O)(=O)O)cc4c3C2(C)C)C(C)(C)c2c1ccc1c(S(=O)(=O)[O-])cc(S(=O)(=O)O)cc21`, for which the 50% inhibitory concentration (IC50) against Histone deacetylase was determined as 9.6 nM.
In the case of `CN(C)Cc1ccc(C(=O)Nc2cc(-c3ccccc3)ccc2N)cc1`, the results for the IC50 at Histone deacetylase 1, against Histone deacetylase 2 and against Histone deacetylase 3 were 10 nM, 20 nM and 5200 nM, respectively.
Regarding `[11CH3]n1cc(CCNCc2ccc(/C=C/C(=O)NO)cc2)c2ccccc21`, the IC50 on Histone deacetylase 1 stood at 0.2 nM; on Histone deacetylase 2, 1.2 nM; on Histone deacetylase 3, 0.4 nM; against Histone deacetylase 4, 655 nM; on Histone deacetylase 5 it was 99 nM; in assay [2], 1.6 nM. Moreover, the IC50 was 2040 nM on Histone deacetylase 7, 1040 nM against Histone deacetylase 8 and 4850 nM at Histone deacetylase 9.
For `COc1cc2c(Nc3cccc(/C=C/C(=O)NO)c3)ncnc2cc1OCCCN1CCOCC1`, the IC50 against Histone deacetylase 1 worked out at 160 nM; at Histone deacetylase 3 it was 180 nM; in assay [2], 560 nM.

The values above are taken from ChEMBL document CHEMBL5252522 (Eur J Med Chem, 2016).
